In ChEMBL document CHEMBL1136301, “1,2,5,6-tetra-O-benzyl-D-mannitol derivatives as novel HIV protease inhibitors” (Bioorg Med Chem Lett, 2003):

What follows are compounds tested against Human immunodeficiency virus type 1 protease (Human immunodeficiency virus 1, UniProt Q72874) (assay: Inhibitory activity against HIV-1 protease).

Compound | IC50 [µM]
OCc1ccc(COC(COCc2ccccc2)C(O)C(O)C(COCc2ccccc2)OCc2ccc(CO)cc2)cc1 (stereo not drawn) | 10
OCc1ccc(COCC(OCc2ccccc2)C(O)C(O)C(COCc2ccc(CO)cc2)OCc2ccccc2)cc1 (stereo not drawn) | 1.2
Cc1ccccc1COC(COCc1ccccc1F)C(O)C(O)C(COCc1ccccc1F)OCc1ccccc1C (stereo not drawn) | 0.8
OC(C(COCc1c(F)cccc1F)OCc1ccccc1)C(O)C(COCc1c(F)cccc1F)OCc1ccccc1 (stereo not drawn) | 0.33
O[C@H]([C@@H](O)[C@H](COCc1ccccc1)OCc1ccccc1)[C@H](COCc1ccccc1)OCc1ccccc1 | > 50
OC(C(COCc1ccccc1)OCc1ccc(C(F)(F)F)cc1)C(O)C(COCc1ccccc1)OCc1ccc(C(F)(F)F)cc1 (stereo not drawn) | 10
NC(=O)c1ccc(COC(COCc2ccccc2)C(O)C(O)C(COCc2ccccc2)OCc2ccc(C(N)=O)cc2)cc1 (stereo not drawn) | 20
O[C@@H](C[C@@H](COCc1ccccc1)OCc1ccccc1)[C@@H](COCc1ccccc1)OCc1ccccc1 | > 50
O[C@@H]([C@H](O)[C@@H](COCc1ccccc1)OCc1ccccc1)[C@@H](COCc1ccccc1)OCc1ccccc1 | 2.4
OC(C(COCc1ccccc1)OCc1ccc(Br)cc1)C(O)C(COCc1ccccc1)OCc1ccc(Br)cc1 (stereo not drawn) | 2.1
OC(C(COCc1ccc(C(F)(F)F)cc1)OCc1ccc(C(F)(F)F)cc1)C(O)C(COCc1ccc(C(F)(F)F)cc1)OCc1ccc(C(F)(F)F)cc1 (stereo not drawn) | 6
O[C@@H]([C@H](O)[C@@H](COc1ccccc1)OCc1ccccc1)[C@@H](COc1ccccc1)OCc1ccccc1 | > 50
Cc1ccc(COCC(OCc2ccc(C)cc2)C(O)C(O)C(COCc2ccc(C)cc2)OCc2ccc(C)cc2)cc1 (stereo not drawn) | 7
OC(C(COCc1cccc(F)c1)OCc1ccccc1)C(O)C(COCc1cccc(F)c1)OCc1ccccc1 (stereo not drawn) | 1.5
O=C(O)c1ccc(COCC(OCc2ccccc2)C(O)C(O)C(COCc2ccc(C(=O)O)cc2)OCc2ccccc2)cc1 (stereo not drawn) | 5
COC(=O)c1ccc(COCC(OCc2ccccc2)C(O)C(O)C(COCc2ccc(C(=O)OC)cc2)OCc2ccccc2)cc1 (stereo not drawn) | 2
OC(C(COCc1ccccc1F)OCc1ccccc1)C(O)C(COCc1ccccc1F)OCc1ccccc1 (stereo not drawn) | 0.6
Cc1ccc(COC(COCc2ccccc2)C(O)C(O)C(COCc2ccccc2)OCc2ccc(C)cc2)cc1 (stereo not drawn) | 3.7
N#Cc1ccc(COC(COCc2ccccc2)C(O)C(O)C(COCc2ccccc2)OCc2ccc(C#N)cc2)cc1 (stereo not drawn) | 5.4
O=C(O)c1ccc(COC(COCc2ccccc2)C(O)C(O)C(COCc2ccccc2)OCc2ccc(C(=O)O)cc2)cc1 (stereo not drawn) | 26
Cc1ccc(COCC(OCc2ccccc2)C(O)C(O)C(COCc2ccc(C)cc2)OCc2ccccc2)cc1 (stereo not drawn) | 3
OC(C(COCc1ccc(Cl)cc1)OCc1ccccc1)C(O)C(COCc1ccc(Cl)cc1)OCc1ccccc1 (stereo not drawn) | 5.2

Compound | IC50 [µM]
O[C@H]([C@H](O)[C@H](COCc1ccccc1)OCc1ccccc1)[C@@H](COCc1ccccc1)OCc1ccccc1 | > 50
OC(C(COCc1ccc(F)cc1)OCc1ccccc1)C(O)C(COCc1ccc(F)cc1)OCc1ccccc1 (stereo not drawn) | 2.5
OC(C(COCc1ccccc1)OCc1ccc(F)cc1)C(O)C(COCc1ccccc1)OCc1ccc(F)cc1 (stereo not drawn) | 0.7
OC(C(COCc1ccccc1F)OCc1ccc(F)cc1)C(O)C(COCc1ccccc1F)OCc1ccc(F)cc1 (stereo not drawn) | 0.2
OC(C(COCc1ccccc1)OCc1ccc(Cl)cc1)C(O)C(COCc1ccccc1)OCc1ccc(Cl)cc1 (stereo not drawn) | 2
O[C@H]([C@H](O)[C@@H](COCc1ccccc1)OCc1ccccc1)[C@@H](COCc1ccccc1)OCc1ccccc1 | > 50
OC(C(COCc1ccc(C(F)(F)F)cc1)OCc1ccccc1)C(O)C(COCc1ccc(C(F)(F)F)cc1)OCc1ccccc1 (stereo not drawn) | 5
O[C@@H]([C@H](OCc1ccccc1)[C@H](COCc1ccccc1)OCc1ccccc1)[C@@H](COCc1ccccc1)OCc1ccccc1 | > 50
O[C@@H]([C@H](O)[C@@H](Cc1ccccc1)OCc1ccccc1)[C@@H](Cc1ccccc1)OCc1ccccc1 | > 50
COC(=O)c1ccc(COC(COCc2ccccc2)C(O)C(O)C(COCc2ccccc2)OCc2ccc(C(=O)OC)cc2)cc1 (stereo not drawn) | 8.4
OC(C(COCc1ccccc1)OCc1ccc(F)cc1F)C(O)C(COCc1ccccc1)OCc1ccc(F)cc1F (stereo not drawn) | 2.6
OC(C(COCc1ccccc1)OCc1cccc(F)c1)C(O)C(COCc1ccccc1)OCc1cccc(F)c1 (stereo not drawn) | 1.8
OC(C(COCc1ccc(F)cc1F)OCc1ccccc1)C(O)C(COCc1ccc(F)cc1F)OCc1ccccc1 (stereo not drawn) | 4.2
NCc1ccc(COC(COCc2ccccc2)C(O)C(O)C(COCc2ccccc2)OCc2ccc(CN)cc2)cc1 (stereo not drawn) | 27
OC(C(COCc1ccc(Br)cc1)OCc1ccccc1)C(O)C(COCc1ccc(Br)cc1)OCc1ccccc1 (stereo not drawn) | 6
OC(C(COCc1ccccc1)OCc1c(F)cccc1F)C(O)C(COCc1ccccc1)OCc1c(F)cccc1F (stereo not drawn) | 6.4
OC(C(COCc1ccc(F)cc1)OCc1ccc(F)cc1)C(O)C(COCc1ccc(F)cc1)OCc1ccc(F)cc1 (stereo not drawn) | 1.6
N#Cc1ccc(COCC(OCc2ccccc2)C(O)C(O)C(COCc2ccc(C#N)cc2)OCc2ccccc2)cc1 (stereo not drawn) | 4.3
OC(C(COCc1ccccc1)OCc1ccccc1F)C(O)C(COCc1ccccc1)OCc1ccccc1F (stereo not drawn) | 3.7
N#Cc1ccc(COCC(OCc2ccc(C#N)cc2)C(O)C(O)C(COCc2ccc(C#N)cc2)OCc2ccc(C#N)cc2)cc1 (stereo not drawn) | 3.1
OC(C(COCc1c(F)cccc1F)OCc1ccc(F)cc1)C(O)C(COCc1c(F)cccc1F)OCc1ccc(F)cc1 (stereo not drawn) | 0.33
